From PubChem BioAssay AID1645848
In brackets after ≈: the same amount, converted by molar mass.

Settings: buffer; pH 7.4; 6.0 h; 150.0 µM

| Structure (SMILES) | solubility kinetic [µg/mL] |
| --- | --- |
| COc1nccc(-c2nc(Nc3ccc(F)c(F)c3)c3ccccc3n2)c1Cl | < 1 |
| Fc1cc(Nc2nc(-c3ccncc3)nc3ccccc23)ccc1-c1cccc(C(F)(F)F)c1 | < 1 |
| COc1ccc(-c2cc(-c3cccc(NC(C)=O)c3)cn3cncc23)cn1 | 6.93 (≈ 19.3 µM) |
| O=C1C(c2ccc(C(F)(F)F)cc2)=C(Nc2ccc(Cl)cc2)c2ccccc21 | < 1 |
| CCN(CC)S(=O)(=O)c1ccc(N2CCOCC2)c(NC(=O)c2[nH]c(C)c(C(C)=O)c2C)c1 | 3.85 (≈ 8.08 µM) |
| COc1ccccc1N1CCN(C2CCCCC2NS(=O)(=O)c2ccccc2)CC1 (stereo unspecified) | 2.68 (≈ 6.25 µM) |
| Cc1cc(-c2nnc3n2CCCCC3)c(C)n1-c1ccc([N+](=O)[O-])cc1 | > 52 |
| Cc1ccc(S(=O)(=O)Nc2cnccc2C(=O)Nc2ccc(S(=O)(=O)Nc3nccs3)cc2)cc1 | > 63 |
| NC(=O)C1CCN(c2ncc(-c3cccc(N4CCCCC4)c3)s2)CC1 | 32.9 (≈ 88.8 µM) |
| CCc1cccc(CC)c1-n1c(C=C(C)C)c(C(=O)N2CCNCC2)cc(-c2nc(-c3ccc(C(F)(F)F)cc3)cs2)c1=O | < 1 |
| CN1CCN(c2cc(-c3nc(Nc4ccc(F)c(F)c4)c4ccccc4n3)ccn2)CC1 | < 1 |
| COC(=O)c1ccnc(NC(=S)N2CCN(c3cccc(C(F)(F)F)c3)CC2)c1 | 2.19 (≈ 5.17 µM) |
| Cc1ccc2oc(NC3=NC(c4ccccc4Cl)C4=C(CCCC4=O)N3)nc2c1 (stereo unspecified) | < 1 |
| O=C(c1nc(-c2ccc(Cl)nc2)c2ccccn12)N1CCCC1 | 2.73 (≈ 8.36 µM) |
| CCN(CC)CCNC(=O)c1c(C)[nH]c(C=C2C(=O)Nc3ccc(F)cc32)c1C | > 59 |
| Cc1nc(Nc2n[nH]c3c2CN(C(=O)N[C@H](CN(C)C)c2ccccc2)C3(C)C)c2sccc2n1 | > 72 |
| CC(=O)c1c(C)[nH]c(C(=O)Nc2cccc([S+](=O)([O-])Nc3ccccc3C)c2)c1C | < 1 |
| CN1CCC(N(Cc2cccs2)c2ccccc2)CC1 | > 42 |
| CN1CCCN(C(c2ccccc2)c2ccc(Cl)cc2)CC1 (stereo unspecified) | 36.9 (≈ 117 µM) |
| CCOC(=O)Nc1cc(-c2ccc(C)c(NS(C)(=O)=O)c2)nn2c(C)nnc12 | 33.6 (≈ 83.2 µM) |
| COCC(C)Nc1ncnc2c1cnn2-c1ccc(C)c(C)c1 (stereo unspecified) | 5.58 (≈ 17.9 µM) |
| Cc1cccc(-c2noc([C@@H]3Cc4nc[nH]c4CN3C(=O)CC(C)(C)CC(=O)O)n2)c1 | > 63 |
| CCOP(=O)(Cc1ccc(C(=O)Nc2ccc(Br)cc2C#N)cc1)OCC | 14.9 (≈ 33.1 µM) |
| CCOc1ccc(NC(=O)c2nc(S(=O)(=O)Cc3ccccc3F)ncc2Cl)cc1 | < 1 |

| Structure (SMILES) | solubility kinetic [µg/mL] |
| --- | --- |
| Cc1ccc(-c2cc(C(=O)NCc3ccc(S(N)(=O)=O)cc3)c3ccccc3n2)cc1C | < 1 |
| Nc1c(C(=O)Nc2ccc(Cl)c(C(F)(F)F)c2)sc2nc3c(cc12)N1CCC3CC1 | < 1 |
| Cc1ccc(S(=O)(=O)Nc2ccccc2N2CCCCC2)cc1 | < 1 |
| CCOc1ccc(CCNC(=O)c2ccc3ccccc3n2)cc1OCC | 8.84 (≈ 24.3 µM) |
| COc1ccc(NC(=O)c2[nH]c(C)c(C(C)=O)c2C)cc1S(=O)(=O)N(C)C | 3.68 (≈ 9.34 µM) |
| CNC(=O)C1CCN(C(=O)c2ccc(-c3ncc4cnc(-c5ccccc5)cn34)cc2)CC1 | 40.8 (≈ 92.7 µM) |
| c1c[nH]c(C2CCN(c3ncc(-c4ccc5c(c4)OCCCO5)s3)CC2)n1 | 4.09 (≈ 10.7 µM) |
| CN(C)c1cccc(-c2nccc(N3CCC(C(N)=O)CC3)n2)c1 | > 48 |
| O=C(Nc1nnc(C2CCCCC2)s1)c1ccc(Br)s1 | < 1 |
| Cc1ccccc1C(=O)N1CCc2cc(-c3csc(NC(=O)Cc4ccc5c(c4)OCO5)n3)ccc21 | < 1 |
| O=C(CNC(=O)c1cnccn1)NC1CCCc2c1[nH]c1ccc(Cl)cc21 (stereo unspecified) | 1.46 (≈ 3.79 µM) |
| Cn1nnnc1Sc1ncnc2scc(Br)c12 | 1.27 (≈ 3.85 µM) |
| CCOC(=O)C1CCN(C(=O)Nc2ccc3c(c2)nc(C)n3C)CC1 | > 51 |
| O=C(Cc1ccc(-c2csc(Nc3ccc(F)cc3)n2)s1)N1CCOCC1 | 2.31 (≈ 5.73 µM) |
| Cc1csc2nc(-c3cccc(NC(=O)c4cccc(F)c4)c3)cn12 | < 1 |
| COc1cc(C(=S)N2CCN(CCO)CC2)ccc1OCc1ccc(C)cc1 | 35.9 (≈ 89.6 µM) |
| COC(=O)c1ccc2c(c1)nc1n2[C@@H](CNC(C)=O)COC1 | > 30 |
| CC(C)=CCNc1ncnc2nc[nH]c12 | > 30 |
| O=C1Nc2ccccc2/C1=C/c1ccnc2ccccc12 | 3.07 (≈ 11.3 µM) |
| CSc1nn(Cc2cccc(C)c2)c(N)c1S(=O)(=O)c1ccccc1 | < 1 |
| Cc1nc(NC2CCCCC2)c2nc(-c3ccccc3)n(CCN(C)C)c2n1 | > 56 |
| Cc1cc(C)c(C(=O)Nc2cccc([S+](=O)([O-])N3CCCCCC3)c2)[nH]1 | < 1 |
| O=C(Nc1cccc(C(F)(F)F)c1)C1=CCN(Cc2ccc(F)cc2)CC1 | 26.2 (≈ 69.2 µM) |
| O=C(Nc1cccc(OC(F)(F)F)c1)c1cc(-c2ccc[nH]2)n[nH]1 | 10.8 (≈ 32 µM) |

| Structure (SMILES) | solubility kinetic [µg/mL] |
| --- | --- |
| Cc1ccc(S(=O)(=O)Nc2cccc(C(=O)Nc3nc(-c4ccc(Cl)cc4)cs3)c2)cc1 | < 1 |
| CC(C)c1ccccc1-c1ncc(F)c(NCc2ccc(-c3ccn[nH]3)cc2)n1 | < 1 |
| CCC(CC)C(=O)NC[C@@H]1C=C(C)[C@H](Cc2nc3c(C)cccc3[nH]2)C[C@H]1C(C)C | 4.34 (≈ 10.6 µM) |
| CC(C)(C)n1nc(-c2ccc(Cl)cc2)c2c(N)ncnc21 | < 1 |
| COc1cccc(-c2csc(NC(=O)c3ccncc3NS(=O)(=O)c3ccc(C)cc3)n2)c1 | > 71 |
| COc1ccc(NC(=O)C2=C(C)NC(Nc3nc4ccccc4o3)=NC2c2ccccc2Br)cc1 (stereo unspecified) | < 1 |
| COc1ccc(O)c(CNc2ccc(S(=O)(=O)Nc3nccs3)cc2)c1 | > 58 |
| CCCCN(C)C(=O)c1c(C)sc2ccn(CCC)c(=O)c12 | > 32 |
| O=C(O)c1cccc(-c2noc(-c3ccccc3F)n2)c1 | 7.02 (≈ 24.7 µM) |
| Cc1ccc(-n2c(C)cc(C3=NNC(=NC4CC4)SC3)c2C)cc1C | 2.55 (≈ 7.23 µM) |
| Cc1cc(C)nc(NC(=S)N2CCN(c3cc(C(F)(F)F)nc4ccc(C(F)(F)F)cc34)CC2)c1 | 12 (≈ 23.4 µM) |
| O=C(c1cnn(-c2cccc(F)c2)c1-n1cccc1)N1CCN(c2ccccc2F)CC1 | 1.11 (≈ 2.56 µM) |
| NC(=O)C1CCN(c2nc(-c3ccc4c(c3)CCO4)cs2)CC1 | > 49 |
| Cc1onc(-c2ccccc2)c1C(=O)Nc1nnc(COc2ccc(Cl)cc2)s1 | < 1 |
| CC(C)(C)c1ccc(S(=O)(=O)N2CCC(c3ccncc3)CC2)cc1 | < 1 |
| O=C(c1nc(-c2cccnc2)c2ccccn12)N1CCOCC1 | 45.2 (≈ 147 µM) |
| CCC1=Nc2cc(C(=O)NCCCOC)ccc2Sc2ccc(Br)cc21 | 6.63 (≈ 15.3 µM) |
| COC(=O)c1ccc(Nc2nc(-c3ccncc3)nc3ccccc23)cc1OC | < 1 |
| CCOc1ccc(CCNC(=O)c2cc3cccnc3n2Cc2cccc(C)n2)cc1OCC | 43.8 (≈ 95.4 µM) |
| COc1cccc(NCCC2(c3ccccc3)CC(C)(C)OC(C)(C)C2)c1 | < 1 |
| CCOC(=O)N1CCc2c(sc(NCc3ccc(N(C)C)cc3)c2C(=O)Nc2ccc(OC)cc2)C1 | 2 (≈ 3.93 µM) |
| COc1cccc(CNc2ccc(S(=O)(=O)Nc3ccc(-c4ccccc4)cc3)cc2)c1O | < 1 |
| CCOc1ccc(CCNC(=O)c2cc3sccc3n2Cc2ccc(-n3cncn3)cc2)cc1OCC | < 1 |
